Test results published in patent publication US9101138B2, “Methods and compositions utilizing lactams derived from camphor, verbenone or cat thyme oil for repelling blood-sucking and biting insects, ticks and mites” (The United States of America, as represented by the …, priority 2013, dated 2015).

Tests used:
Format in all cases: in vivo
[1] = system: Sand Fly (Phlebotomus papatasi); experiment: Sand fly blood-feeding assay for testing repellents and feeding deterrents; conditions: 2 h; for Mean % Feeding / Mean % Inhibition: n = 3; for effectiveness (comparison between compounds): sand fly blood feeding
From the text: Sand Fly (Phlebotomus papatasi) blood-feeding assay for testing repellents and feeding deterrents: A pig intestine-based membrane feeing system (Watnaporn, D., et al., Proceedings of VIIIth Sir Dorabjee Tata International Symposium: Arthropod born viral infections-Current status and research, Pages 417-424, 2008) has been used for blood-feeding of female sand flies in colony maintenance. The same technique has been used for testing repellency and antifeeding effects of several new compounds. A circular area of the fabric mesh on top of the test container that matches the size of the glass feeder was treated with the test compound by applying the test solution using a Q-tip. After a group of 30 females and 15 males was placed into the test container, a glass feeder filled with cow blood was placed on top of the treated area in the center of the fabric mesh that was secured on top of the container. Sand flies were allowed to feed for 2 h before the number of blood-fed females was in each feeding container counted.
Female sand flies in the untreated control achieved a 32% to 61% blood feeding rate during the test period (2 h) when a group of 30 females and 15 males was placed in a feeding pot and fed through a fine mesh screen using an artificial membrane feeding system (Table 1 [?]).

[2] = system: adult lone star ticks, Amblyomma americanum; experiment: Tick repellency: vertical filter paper bioassay; conditions: for % repelled: ticks exposed 10-15 minutes after application
Description: Tick repellency: Vertical filter paper bioassay against adult lone star ticks, Amblyomma americanum, and nymphs was conducted with selected lactams, lactones and ketones. Adult ticks were exposed 10-15 minutes after application of the candidate compounds. Repellency was measured in % repelled from the treated surface at various concentrations.

Aedes aegypti females = experiment: Feeding deterrency assay utilising K&D module; conditions: 25 nmol\cm^2
Description: Feeding Deterrency assay utilising K&D module (Klun, J. A., and M. Debboun, J. Med. Entomol., 37: 177-181 (2000); Klun, J. A., et al., 40: 293-299 (2003)): Test compounds were bioassayed for their feeding deterrency against Aedes aegypti females in K&D module assay. […] Feeding deterrency was evaluated as proportion feeding. Ethanol was used as control.

Aedes aegypti = experiment: Free choice assay against mosquitoes (feeding deterrence assay in glove box); conditions: treated membrane over human blood, 20 min; for EC50: median effective dose to repel 50% of mosquitoes
Description: Free Choice Assay against mosquitoes (compact repellency): Mosquitoes used were nulliparous female Aedes aegypti (Red eye Liverpool strain). They were laboratory-reared and maintained at 27° C. and 80% RH under a photoperiod of 12:12 (L:D) h by using standard mosquito rearing procedures (Rutledge, C. C., et al., J. Med. Entomol., 14: 536-541 (1978)). Larvae were fed a diet of ground tropical fish flakes and adults were fed a 10% sucrose solution. Adult female mosquitoes used for experimentation were between 5 and 15 d old and starved (provided only water) for 24 h before testing. The test system consisted of a mosquito blood-feeder, a constant-temperature water circulator (to maintain the temperature of the blood at 37° C.) and a specially designed cage. The mosquito blood-feeder contained five circular blood reservoirs, each of which was filled with outdated human blood titrated with adenosine triphosphate. The wells were then covered with sausage membrane and secured using high vacuum grease. Absolute ethanol was used as a solvent and diluent for candidate repellents. Each diluted repellent solution was then randomly applied to the membrane surface at concentrations of 0.02, 0.04, 0.08 and 0.16 mg/cm^2. A separate membrane covered well served as a control. 250 mosquitoes were exposed to the treated membranes on the blood reservoirs ad libitum by opening the sliding door in the floor of the test cage. The number of mosquitoes feeding on each well was counted and noted at two-minute intervals for 20 minutes using the total number of feeding mosquitoes as a response. Each test was replicated for a minimum of four times to obtain a statistically valid sample size for analysis. The median effective dose to repel 50% of the mosquito test population was then calculated by the method of Goldstein (Goldstein, A., et al., 1974. Principles of Drug Action: The Basis of Pharmacology, 2nd ed., John Wiley and Sons, New York, N.Y., 854 p) (chemical sensitivity levels calculated from the dose-response regression equation) for single curves with graded responses. Significant differences were then determined by comparing the 95% confidence level among effective doses.

Compound | Mean % Feeding ([1]; concentration 0.001%) [%] | Mean % Inhibition ([1]; concentration 0.001%) [%] | Mean % Feeding ([1]; concentration 0.01%) [%] | Mean % Inhibition ([1]; concentration 0.01%) [%] | % repelled ([2]; Conc. 125 ug) [%] | % repelled ([2]; Conc. 500 ug) [%] | % repelled ([2]; Conc. 2000 ug) [%] | % not biting (Aedes aegypti females) [%] | mean bites\6 (Aedes aegypti females) | total Bites\120 (Aedes aegypti females) | EC50 (Aedes aegypti) [mg/cm^2] | EC95 (Aedes aegypti) [mg/cm^2] | further results
CC12CCC(CNC1=O)C2(C)C (centres unmarked) [Compound 1, Camphor lactam] | 2.2 | 97.0 | 0.0 | 100.0 | 26.7 | 66.7 | 73.3 | 91 | 0.55 | 11 | 0.0355 | 0.166 | Mean % Feeding ([1]; concentration 0.00001%): 6.7%; Mean % Inhibition ([1]; concentration 0.00001%): 90.9%; Mean % Feeding ([1]; concentration 0.0001%): 3.3%; Mean % Inhibition ([1]; concentration 0.0001%): 95.5%
CCCN1CC2CCC(C)(C1=O)C2(C)C (centres unmarked) [Compound 1a, N-propyl camphor lactam] | 1.1 | 98.5 | 0.0 | 100.0 | 26.7 | 100 | 93.3 | 96 | 0.25 | 5 | 0.0282 | 0.102 | Mean % Feeding ([1]; concentration 0.00001%): 5.6%; Mean % Inhibition ([1]; concentration 0.00001%): 92.4%; Mean % Feeding ([1]; concentration 0.0001%): 6.7%; Mean % Inhibition ([1]; concentration 0.0001%): 90.9%
C=C1CNC(=O)C2C(C)CCC12 (centres unmarked) [Compound 3, Dolicho (C) lactam] | – | – | – | – | – | – | – | 92 | 0.5 | 10 | 0.0322 | 0.173 | effectiveness (comparison between compounds) [1]: more effective than dolicholactone
C=C1CN(CCC)C(=O)C2C(C)CCC12 (centres unmarked) [Compound 3a, N-propyl dolicho-C-lactam] | 25.6 | 65.1 | 17.8 | 75.8 | 83.6 | 100 | 100 | 98 | 0.15 | 3 | 0.0317 | 0.117 | Mean % Feeding ([1]; concentration 0.02%): 8.9%; Mean % Inhibition ([1]; concentration 0.02%): 87.9%; Mean % Feeding ([1]; concentration 0.04%): 5.6%; Mean % Inhibition ([1]; concentration 0.04%): 92.4%; effectiveness (comparison between compounds) [1]: more effective than dolicholactam; % repelled ([2]; Conc. 63 ug): 20%
C=C1COC(=O)[C@H]2[C@@H]1CC[C@@H]2C [Compound 5, Dolicholactone (C)] | – | – | – | – | – | – | – | 89 | 0.7 | 14 | – | – | –
C=C1C(=O)OC[C@H]2[C@@H]1CC[C@@H]2C [Compound 6, Dolicho lactone (D)] | – | – | – | – | – | – | – | 87 | 0.8 | 16 | – | – | –
CC(C)=CCCC(C)C1C=CC(=O)CC1 (centres unmarked) [Compound 7a, 4-(1,5-Dimethylhex-4-enyl)cyclohex-2-en-1-one] | – | – | – | – | 73.3 | 96.7 | 82.5 | – | – | – | – | – | % repelled ([2]; Conc. 31 ug): 20%; % repelled ([2]; Conc. 63 ug): 53.3%; lowest concentration at which adult ticks were repelled ([2]; filter paper bioassay): 31 µg
CCN(CC)C(=O)c1cccc(C)c1 [DEET, N,N-diethyl-m-toluamide, reference compound] | – | – | – | – | 5 | 68.3 | 95.7 | 94 | 0.4 | 8 | – | – | repellency ([2]; at 125 and 64 ug concentrations): failed to repel ticks
N-propyl dihydro verbenone lactam [Compound 2a] | – | – | – | – | – | – | – | 92 | 0.5 | 10 | 0.0561 | 0.264 | –
